Experimental data as given in PubChem BioAssay (NCI).
Where “and” joins values, the source holds several entries; their conditions need not be identical. Equal entries are not always repeated.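 Each compound was tested at five concentrations against cells in 96-well plates for 48 hours. GI50 = concentration required for 50% inhibition of growth. The concentration for full growth arrest is given as TGI.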

What was measured:
Test in all cases: inhibition of tumour cell growth, NCI panel, 48 h
HCT-15 colon = system: HCT-15 colon
HOP-62 NSCLC = system: HOP-62 NSCLC
HS 578T breast = system: HS 578T breast
NCI-H23 lung = system: NCI-H23 lung
NCI-H460 lung = system: NCI-H460 lung
NCI-H522 lung = system: NCI-H522 lung
OVCAR-3 ovarian = system: OVCAR-3 ovarian
OVCAR-4 ovarian = system: OVCAR-4 ovarian
SK-OV-3 ovarian = system: SK-OV-3 ovarian
TK-10 renal = system: TK-10 renal

| Compound | GI50 (HCT-15 colon) [µM] | TGI (HCT-15 colon) | GI50 (HOP-62 NSCLC) [µM] | TGI (HOP-62 NSCLC) | GI50 (HS 578T breast) [µM] | TGI (HS 578T breast) | TGI (NCI-H23 lung) [µM] | GI50 (NCI-H460 lung) [µM] | TGI (NCI-H460 lung) | GI50 (NCI-H522 lung) [µM] | TGI (NCI-H522 lung) | GI50 (OVCAR-3 ovarian) [µM] | TGI (OVCAR-3 ovarian) | GI50 (OVCAR-4 ovarian) [µM] | TGI (OVCAR-4 ovarian) | GI50 (SK-OV-3 ovarian) [µM] | TGI (SK-OV-3 ovarian) | TGI (TK-10 renal) [µM] | GI50 (NCI-H23 lung) [µM] | GI50 (TK-10 renal) [µM] |
| --- | --- | --- | --- | --- | --- | --- | --- | --- | --- | --- | --- | --- | --- | --- | --- | --- | --- | --- | --- | --- |
| S=C(N/N=C(/c1ccccc1)c1ccccn1)N1CCCCC1 | < 0.001 | 2.22 µM and 3.94 µM | < 0.001 | 2.33 µM and 2.78 µM | 1.3 | 6.74 µM and 5.88 µM | 1.74 | 0.00149 | 2.31 µM and 1.52 µM | 0.422 | 3.13 µM and 1.71 µM | < 0.001 | 1.88 µM and 1.39 µM | 0.119 | 3.12 µM and 1.43 µM | < 0.001 | 2.36 µM and 1.24 µM | 1.97 | – | – |
| Cc1cc(Cl)cc2c(N=Nc3ccccc3[N+](=O)[O-])c(O)[nH]c12 | – | > 100 µM | – | > 100 µM | – | > 100 µM | > 100 | – | > 100 µM | – | > 100 µM | – | > 100 µM | – | > 100 µM | – | > 100 µM | > 100 | – | – |
| Cc1cc(NCCCNc2ccnc3cc(Cl)ccc23)nc(N2CCN(C)CC2)n1 | 3.29 | 22.8 µM | 4.79 | 21 µM | 12.4 | 36.9 µM | 28.6 | 2.66 | 10.4 µM | 2.43 | 11.1 µM | 5.79 | 25.7 µM | 4.03 | 44.5 µM | 7.66 | 45.6 µM | 29.9 | 5.9 | 6.51 |
| Cc1ccc(NC(=O)Cc2ccc(/C=C/C(=O)c3ncc[nH]3)cc2)cc1 | 2.01 | 15.6 µM | 5.24 | 21.6 µM | 13.6 | > 25 µM | > 25 | 6.32 | > 25 µM | 4.54 | 20.5 µM | 1.67 | > 25 µM | 10.4 | > 25 µM | 12.8 | > 25 µM | > 25 | 5.85 | 7.93 |
| O=c1c2c3c(sc2n2c(-c4cc(-c5ccccc5)no4)nnc2n1Cc1ccccc1)CCCC3 | 11.6 | > 83.4 µM | 14.8 | 57 µM | 18.7 | > 94.7 µM | > 100 | 12.6 | 36.8 µM | 3.4 | 28.1 µM | 8.61 | 30.5 µM | 19.2 | > 100 µM | 38.4 | > 100 µM | > 82.8 | 36.6 | 21.5 |
| CCCc1cc(O)c2c3c(c(=O)oc2c1)CN(C)CC3 | 39.9 | > 100 µM | 67.1 | > 100 µM | 41.3 | > 100 µM | > 100 | > 100 | > 100 µM | 45.1 | > 100 µM | > 100 | > 100 µM | 82.8 | > 100 µM | 85 | > 100 µM | > 100 | 98.9 | > 100 |
| N#Cc1cccc(OCc2nc(N)nc(N)c2-c2ccc(Cl)c(Cl)c2)c1 | 0.575 | > 100 µM | 4.44 | > 100 µM | 4.41 | > 100 µM | > 100 | 0.435 | > 100 µM | 5.62 | > 100 µM | 5.53 | > 100 µM | > 100 | > 100 µM | 9.56 | > 100 µM | > 100 | 2.42 | 9.32 |
